Data: PubChem BioAssay AID192 (DTP/NCI, 2004)
Values joined by “and” are separate entries in the source; they are usually repeats but may differ in a detail not shown here. Identical values can stand only once. Inconclusive results and toxic doses are left out.

System: BDF1 mice, B16 melanoma ip, median survival T/C
Assay: NCI In Vivo Anticancer Drug Screen. Data for tumor model B16 Melanoma (intraperitoneal) in B6D2F1 (BDF1) mice
Conditions: endpoint: median survival time, higher = longer survival
Description: The antitumor activity of compounds was measured in mice bearing transplantable tumors. Survival or tumor size were measured and the results are expressed as the measurement made in the treated group (T) divided by the measurement made in the vehicle treated control group (C). The tumor model used in this assay is B16 Melanoma (intraperitoneal) in B6D2F1 (BDF1) mice

[1] = dose: 12.5 mg/kg/injection, schedule: Q01DX009 (ip), vehicle: Klucel (hydroxypropylcellulose) (HPC)
[2] = dose: 25.0 mg/kg/injection, schedule: Q01DX009 (ip), vehicle: Klucel (hydroxypropylcellulose) (HPC)
[3] = dose: 50.0 mg/kg/injection, schedule: Q01DX009 (ip), vehicle: Klucel (hydroxypropylcellulose) (HPC)
[4] = dose: 100.0 mg/kg/injection, schedule: Q01DX009 (ip), vehicle: Klucel (hydroxypropylcellulose) (HPC)
[5] = dose: 25.0 mg/kg/injection, schedule: Q01DX009 (ip), vehicle: saline
[6] = dose: 50.0 mg/kg/injection, schedule: Q01DX009 (ip), vehicle: saline
[7] = dose: 100.0 mg/kg/injection, schedule: Q01DX009 (ip), vehicle: saline
[8] = dose: 6.25 mg/kg/injection, schedule: Q01DX009 (ip), vehicle: Klucel (hydroxypropylcellulose) (HPC)
[9] = dose: 12.5 mg/kg/injection, schedule: Q01DX009 (ip), vehicle: saline with Tween-80
[10] = dose: 25.0 mg/kg/injection, schedule: Q01DX009 (ip), vehicle: saline with Tween-80

CCC1OCC(C(Cl)CCl)O1 (stereo not given)
T/C [1]: 90 % of control and 97 % of control
T/C [2]: 88 % of control and 109 % of control
T/C [3]: 86 % of control and 97 % of control
T/C [4]: 94 % of control and 105 % of control
T/C (dose: 200.0 mg/kg/injection, schedule: Q01DX009 (ip), vehicle: Klucel (hydroxypropylcellulose) (HPC)): 89 % of control and 117 % of control
T/C (dose: 400.0 mg/kg/injection, schedule: Q01DX009 (ip), vehicle: Klucel (hydroxypropylcellulose) (HPC)): 105 % of control

Cc1cc(O)ccc1[N+](=O)[O-]
T/C [5]: 119 % of control
T/C [6]: 123 % of control
T/C [7]: 104 % of control

CC[C@H]1CN2CCc3cc(OC)c(OC)cc3[C@@H]2C[C@@H]1C[C@H]1NCCc2cc(O)c(OC)cc21
T/C (dose: 2.0 mg/kg/injection, schedule: Q01DX009 (ip), vehicle: saline + alcohol): 118 % of control
T/C (dose: 2.0 mg/kg/injection, schedule: Q01DX009 (ip), vehicle: saline): 108 % of control and 120 % of control
T/C (dose: 8.0 mg/kg/injection, schedule: Q01DX009 (ip), vehicle: saline + alcohol): 113 % of control
T/C (dose: 8.0 mg/kg/injection, schedule: Q04DX003 (ip), vehicle: alkali diluted with saline): 117 % of control
T/C (dose: 16.0 mg/kg/injection, schedule: Q04DX003 (ip), vehicle: alkali diluted with saline): 108 % of control
T/C (dose: 32.0 mg/kg/injection, schedule: Q04DX003 (ip), vehicle: alkali diluted with saline): 122 % of control

CCc1ccccc1NC(=O)Nc1ccc(Cl)cc1
T/C (dose: 100.0 mg/kg/injection, schedule: Q01DX009 (ip), vehicle: gum acacia): 101 % of control
T/C (dose: 200.0 mg/kg/injection, schedule: Q01DX009 (ip), vehicle: gum acacia): 97 % of control
T/C (dose: 400.0 mg/kg/injection, schedule: Q01DX009 (ip), vehicle: gum acacia): 93 % of control

COc1ccc(S(=O)O)cc1NC(C)=O
T/C (dose: 100.0 mg/kg/injection, schedule: Q04DX003 (ip), vehicle: Klucel (hydroxypropylcellulose) (HPC)): 95 % of control

O=C1C=CC(=C(c2ccccc2)c2ccccc2)C=C1
T/C [8]: 96 % of control
T/C [1]: 100 % of control
T/C (dose: 12.5 mg/kg/injection, schedule: Q04DX003 (ip), vehicle: Klucel (hydroxypropylcellulose) (HPC)): 96 % of control
T/C [2]: 96 % of control
T/C (dose: 25.0 mg/kg/injection, schedule: Q04DX003 (ip), vehicle: Klucel (hydroxypropylcellulose) (HPC)): 100 % of control

O=Cc1cc([N+](=O)[O-])ccc1Cl
T/C (dose: 50.0 mg/kg/injection, schedule: Q01DX009 (ip), vehicle: saline with Tween-80): 95 % of control
T/C (dose: 100.0 mg/kg/injection, schedule: Q01DX009 (ip), vehicle: saline with Tween-80): 92 % of control

Cc1ccc2c(ccc(/C=C/c3ccc(O)c4ncccc34)[n+]2C)c1
T/C [9]: 113 % of control
T/C [10]: 103 % of control

CN(C)N=Nc1ccccc1
T/C [8]: 120 % of control
T/C [1]: 112 % of control and 123 % of control
T/C [2]: 117 % of control

COc1cc(-c2ccc(N=Nc3ccc4c(S(=O)(=O)O)cc(S(=O)(=O)O)c(N)c4c3O)c(OC)c2)ccc1N=Nc1ccc2c(S(=O)(=O)O)cc(S(=O)(=O)O)c(N)c2c1O
T/C [1]: 88 % of control
T/C [2]: 97 % of control
T/C [3]: 102 % of control

CC(=O)c1ccc(Oc2ccc(/C(C)=N\N=C(N)N)cc2)cc1
T/C [9]: 95 % of control
T/C [10]: 92 % of control

Cc1cc[n+](C)c2ccccc12
T/C (dose: 9.37 mg/kg/injection, schedule: Q01DX009 (ip), vehicle: saline): 95 % of control
T/C (dose: 18.75 mg/kg/injection, schedule: Q01DX009 (ip), vehicle: saline): 92 % of control
T/C (dose: 37.5 mg/kg/injection, schedule: Q01DX009 (ip), vehicle: saline): 97 % of control

COC(=O)C1C2CC3c4[nH]c5ccc(OC)cc5c4CCN3CC2CC(OC(=O)c2cc(OC)c(OC)c(OC)c2)C1OC (stereo not given)
T/C (dose: 0.17 mg/kg/injection, schedule: Q01DX009 (ip), vehicle: Klucel (hydroxypropylcellulose) (HPC)): 88 % of control
T/C (dose: 0.35 mg/kg/injection, schedule: Q01DX009 (ip), vehicle: Klucel (hydroxypropylcellulose) (HPC)): 110 % of control
T/C (dose: 1.42 mg/kg/injection, schedule: Q01DX009 (ip), vehicle: Klucel (hydroxypropylcellulose) (HPC)): 91 % of control
T/C (dose: 2.85 mg/kg/injection, schedule: Q01DX009 (ip), vehicle: Klucel (hydroxypropylcellulose) (HPC)): 89 % of control
T/C (dose: 22.81 mg/kg/injection, schedule: Q01DX009 (ip), vehicle: Klucel (hydroxypropylcellulose) (HPC)): 100 % of control
T/C (dose: 45.62 mg/kg/injection, schedule: Q01DX009 (ip), vehicle: Klucel (hydroxypropylcellulose) (HPC)): 98 % of control

c1ccc(C2c3ccccc3C(c3ccccc3)(c3ccccc3)c3ccccc32)cc1
T/C [1]: 87 % of control
T/C [2]: 101 % of control
T/C [3]: 97 % of control
T/C [4]: 86 % of control

S=c1[nH]c2ccccc2[nH]1
T/C (dose: 1.56 mg/kg/injection, schedule: Q01DX009 (ip), vehicle: Klucel (hydroxypropylcellulose) (HPC)): 91 % of control
T/C (dose: 3.12 mg/kg/injection, schedule: Q01DX009 (ip), vehicle: Klucel (hydroxypropylcellulose) (HPC)): 90 % of control
T/C [8]: 95 % of control
T/C [1]: 86 % of control
T/C [2]: 100 % of control

CC(=O)ON1C(=O)C=CC1=O
T/C (dose: 3.13 mg/kg/injection, schedule: Q01DX009 (ip), vehicle: water): 92 % of control
T/C (dose: 6.25 mg/kg/injection, schedule: Q01DX009 (ip), vehicle: water): 103 % of control
T/C (dose: 12.5 mg/kg/injection, schedule: Q01DX009 (ip), vehicle: water): 106 % of control
T/C (dose: 25.0 mg/kg/injection, schedule: Q01DX009 (ip), vehicle: water): 87 % of control

COc1ccc2cc1Oc1ccc(cc1)C[C@H]1c3cc(c(OC)cc3CCN1C)Oc1c(O)c(OC)cc3c1[C@H](C2)N(C)CC3
T/C (dose: 25.0 mg/kg/injection, schedule: Q01DX009 (ip), vehicle: acid diluted with saline): 116 % of control
T/C (dose: 50.0 mg/kg/injection, schedule: Q01DX009 (ip), vehicle: acid diluted with saline): 105 % of control

CCCCCCCCCCCCCCCCc1ccc(CCCC(=O)O)cc1
T/C (dose: 25.0 mg/kg/injection, schedule: Q01DX009 (ip), vehicle: carboxymethylcellulose (CMC)): 101 % of control
T/C (dose: 50.0 mg/kg/injection, schedule: Q01DX009 (ip), vehicle: carboxymethylcellulose (CMC)): 103 % of control
T/C (dose: 100.0 mg/kg/injection, schedule: Q01DX009 (ip), vehicle: carboxymethylcellulose (CMC)): 95 % of control

Oc1ccc(C2(c3ccc(O)cc3)CCCCC2)cc1
T/C (dose: 50.0 mg/kg/injection, schedule: Q01DX009 (ip), vehicle: acetone): 97 % of control

ClCC[N+]12CC[N+](CCCl)(CC1)C2 (tested in a mixture with another compound)
T/C [6]: 120 % of control
T/C [7]: 115 % of control
T/C (dose: 200.0 mg/kg/injection, schedule: Q01DX009 (ip), vehicle: saline): 121 % of control

O=C(Nc1ccccc1)Nc1cc(C(F)(F)F)ccc1Cl
T/C (dose: 100.0 mg/kg/injection, schedule: Q04DX009 (ip), vehicle: Klucel (hydroxypropylcellulose) (HPC)): 109 % of control
T/C (dose: 200.0 mg/kg/injection, schedule: Q04DX003 (ip), vehicle: carboxymethylcellulose (CMC)): 90 % of control
T/C (dose: 200.0 mg/kg/injection, schedule: Q04DX009 (ip), vehicle: Klucel (hydroxypropylcellulose) (HPC)): 106 % of control
T/C (dose: 400.0 mg/kg/injection, schedule: Q04DX003 (ip), vehicle: carboxymethylcellulose (CMC)): 92 % of control
T/C (dose: 400.0 mg/kg/injection, schedule: Q04DX009 (ip), vehicle: Klucel (hydroxypropylcellulose) (HPC)): 86 % of control

CC/C(=C/C(F)(F)C(F)(F)C(F)(F)F)[N+](=O)[O-]
T/C [1]: 101 % of control
T/C [2]: 87 % of control
T/C [3]: 87 % of control

CN(N=O)C(=O)Nc1c[nH]c(=O)[nH]c1=O
T/C (dose: 0.13 mg/kg/injection, schedule: Q01DX009 (ip), vehicle: saline with Tween-80): 113 % of control
T/C (dose: 0.5 mg/kg/injection, schedule: Q01DX009 (ip), vehicle: saline with Tween-80): 105 % of control
T/C (dose: 1.0 mg/kg/injection, schedule: Q01DX009 (ip), vehicle: saline with Tween-80): 105 % of control
T/C (dose: 2.0 mg/kg/injection, schedule: Q01DX009 (ip), vehicle: saline with Tween-80): 115 % of control
T/C (dose: 8.0 mg/kg/injection, schedule: Q01DX009 (ip), vehicle: saline with Tween-80): 170 % of control
T/C (dose: 16.0 mg/kg/injection, schedule: Q01DX009 (ip), vehicle: saline with Tween-80): 182 % of control
T/C (dose: 16.5 mg/kg/injection, schedule: Q01DX009 (ip), vehicle: saline with Tween-80): 193 % of control
T/C [10]: 200 % of control
T/C [5]: 176 % of control
T/C (dose: 37.5 mg/kg/injection, schedule: Q01DX009 (ip), vehicle: saline with Tween-80): 200 % of control
